Test results as given in patent US20150018301A1, “LRRK-2-Mediated Neuronal Toxicity” (THE JOHNS HOPKINS UNIVERSITY, priority 2009, published 2015).

Each compound was assayed against T1, LRRK2 WT (Homo sapiens, UniProt Q5S007) (assay: In vitro kinase assay: LRRK2 autophosphorylation). Conditions: compound 16 μM; phosphorylation normalized to absence of compound; mean ± S.E.M. of three experiments.
Assay type: biochemical

T1 sequence (Q5S007 whole entry): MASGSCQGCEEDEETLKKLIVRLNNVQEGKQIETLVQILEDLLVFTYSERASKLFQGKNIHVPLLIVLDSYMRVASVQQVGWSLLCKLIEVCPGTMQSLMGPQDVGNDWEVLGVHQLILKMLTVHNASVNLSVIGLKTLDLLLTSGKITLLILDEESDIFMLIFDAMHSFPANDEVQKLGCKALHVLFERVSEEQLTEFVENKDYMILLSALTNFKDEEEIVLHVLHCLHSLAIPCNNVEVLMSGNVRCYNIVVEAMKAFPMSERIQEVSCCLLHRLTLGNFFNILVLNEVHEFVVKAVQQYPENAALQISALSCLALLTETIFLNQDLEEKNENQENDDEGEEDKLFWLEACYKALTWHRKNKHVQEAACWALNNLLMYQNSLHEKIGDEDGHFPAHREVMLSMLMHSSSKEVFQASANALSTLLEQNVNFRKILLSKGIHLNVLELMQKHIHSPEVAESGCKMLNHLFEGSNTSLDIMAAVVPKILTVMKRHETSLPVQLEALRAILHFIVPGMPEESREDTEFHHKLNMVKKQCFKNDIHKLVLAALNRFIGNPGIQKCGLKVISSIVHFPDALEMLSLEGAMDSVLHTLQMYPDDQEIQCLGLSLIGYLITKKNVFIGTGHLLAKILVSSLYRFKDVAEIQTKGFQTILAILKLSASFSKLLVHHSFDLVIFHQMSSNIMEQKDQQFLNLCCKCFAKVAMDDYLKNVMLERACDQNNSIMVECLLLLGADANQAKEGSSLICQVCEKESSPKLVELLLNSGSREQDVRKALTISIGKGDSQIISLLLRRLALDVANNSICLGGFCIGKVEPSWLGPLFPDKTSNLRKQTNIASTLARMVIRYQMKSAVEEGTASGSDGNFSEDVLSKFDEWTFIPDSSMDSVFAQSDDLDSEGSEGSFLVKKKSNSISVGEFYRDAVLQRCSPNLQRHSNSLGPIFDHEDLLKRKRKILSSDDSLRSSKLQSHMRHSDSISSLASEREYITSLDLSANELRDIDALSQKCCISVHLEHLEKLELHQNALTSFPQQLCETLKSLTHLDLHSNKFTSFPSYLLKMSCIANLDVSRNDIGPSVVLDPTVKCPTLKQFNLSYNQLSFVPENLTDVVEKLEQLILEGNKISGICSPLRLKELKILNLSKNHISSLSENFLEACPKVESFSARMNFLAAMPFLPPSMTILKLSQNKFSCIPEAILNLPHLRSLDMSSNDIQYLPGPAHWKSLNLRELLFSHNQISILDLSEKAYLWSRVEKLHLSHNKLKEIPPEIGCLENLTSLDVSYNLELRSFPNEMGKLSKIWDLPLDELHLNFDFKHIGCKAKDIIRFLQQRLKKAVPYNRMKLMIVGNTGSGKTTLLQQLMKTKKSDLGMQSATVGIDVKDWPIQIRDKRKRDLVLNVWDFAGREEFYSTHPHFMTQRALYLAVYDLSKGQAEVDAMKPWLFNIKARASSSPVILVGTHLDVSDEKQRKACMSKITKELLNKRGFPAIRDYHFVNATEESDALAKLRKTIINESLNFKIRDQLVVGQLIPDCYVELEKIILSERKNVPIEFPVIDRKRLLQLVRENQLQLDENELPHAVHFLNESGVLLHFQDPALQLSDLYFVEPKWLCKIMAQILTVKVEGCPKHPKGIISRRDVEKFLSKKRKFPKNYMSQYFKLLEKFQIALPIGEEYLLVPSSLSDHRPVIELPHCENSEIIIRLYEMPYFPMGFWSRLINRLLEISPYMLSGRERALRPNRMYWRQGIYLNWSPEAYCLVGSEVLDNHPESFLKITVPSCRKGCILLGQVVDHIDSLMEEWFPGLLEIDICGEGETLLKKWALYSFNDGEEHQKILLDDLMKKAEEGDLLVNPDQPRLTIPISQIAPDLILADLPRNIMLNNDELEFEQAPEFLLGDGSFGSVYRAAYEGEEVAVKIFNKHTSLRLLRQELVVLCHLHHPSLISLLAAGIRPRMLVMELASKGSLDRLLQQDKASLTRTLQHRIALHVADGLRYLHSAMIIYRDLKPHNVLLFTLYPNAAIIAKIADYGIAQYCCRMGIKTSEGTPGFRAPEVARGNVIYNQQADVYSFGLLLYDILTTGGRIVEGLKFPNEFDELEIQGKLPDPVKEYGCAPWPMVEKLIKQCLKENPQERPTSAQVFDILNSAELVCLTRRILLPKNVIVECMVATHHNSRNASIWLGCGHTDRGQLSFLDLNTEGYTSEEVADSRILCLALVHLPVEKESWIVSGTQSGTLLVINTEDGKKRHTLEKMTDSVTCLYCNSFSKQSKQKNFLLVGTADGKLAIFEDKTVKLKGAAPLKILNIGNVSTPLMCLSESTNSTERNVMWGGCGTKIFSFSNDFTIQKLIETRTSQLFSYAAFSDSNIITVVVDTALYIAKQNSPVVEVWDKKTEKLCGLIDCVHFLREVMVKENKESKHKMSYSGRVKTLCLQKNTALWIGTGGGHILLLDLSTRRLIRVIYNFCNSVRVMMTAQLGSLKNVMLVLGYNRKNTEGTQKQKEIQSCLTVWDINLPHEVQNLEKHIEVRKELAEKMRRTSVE

Compound | LRRK2 autophosphorylation Average ± SEM
O=S(=O)(NCCNC/C=C/c1ccc(Br)cc1)c1cccc2cnccc12 [Inhibitor 35] | 90.8 ± 2.5 % of control
CN[C@@H]1C[C@H]2O[C@@](C)([C@@H]1OC)n1c3ccccc3c3c4c(c5c6ccccc6n2c5c31)C(=O)NC4 [Inhibitor 6, Staurosporine, reference compound] | 1.9 ± 1.0 % of control
N=C(N)NCCNS(=O)(=O)c1cccc2cnccc12 [Inhibitor 37] | 81.1 ± 17.3 % of control
COc1cc(/C=C(\C#N)C(N)=O)cc(CSc2nc3ccccc3s2)c1O [Inhibitor 8] | 81.7 ± 27.1 % of control
CC(C)CC(NC(=O)[C@H](CCC(=O)O)NC(=O)CNC(=O)c1ccc(/C=C/C(=O)O)cc1)C(N)=O (stereo partly shown) [Inhibitor 84] | 63.9 ± 12.0 % of control
C#COC1(C)[C@@H]2CC[C@@H](O2)C1(C)C(=O)O (stereo partly shown) [Inhibitor 71] | 75.9 ± 2.1 % of control
COC(=O)/C=C/c1cc(O)ccc1O [Inhibitor 61] | 73.0 ± 5.3 % of control
Cc1cc2ncc(-c3ccccc3)nc2cc1C [Inhibitor 19] | 89.4 ± 12.5 % of control
CC(C)n1cnc2c(NCc3ccccc3)nc(NCCO)nc21 [Inhibitor 45] | 56.2 ± 30.8 % of control
N#C/C(=C\c1ccc(O)c(O)c1)C(N)=S [Inhibitor 14] | 80.5 ± 32.2 % of control
O=P(O)(O)Cc1ccccc1 [Inhibitor 74] | 68.3 ± 1.85 % of control
O=C1Nc2ccccc2/C1=C1\Nc2ccccc2C1=O [Inhibitor 69] | 82.0 ± 4.2 % of control
CC[C@@H](CO)Nc1nc(NCc2ccccc2)c2ncn(C(C)C)c2n1 [Inhibitor 48] | 69.4 ± 30.1 % of control
COc1cc2ncc(-c3ccccc3)nc2cc1OC [Inhibitor 55] | 61.2 ± 9.6 % of control
Oc1cc(O)cc(/C=C/c2ccc(O)c(O)c2)c1 [Inhibitor 23] | 87 ± 38.6 % of control
N#CC(C#N)=Cc1ccc(O)c(O)c1 [Inhibitor 11] | 66.9 ± 2.0 % of control
O=P(O)(O)CCc1ccc2ccccc2c1O [Inhibitor 21] | 120.8 ± 54.1 % of control
COC[C@H]1OC(=O)c2coc3c2[C@@]1(C)C1=C(C3=O)[C@@H]2CCC(=O)[C@@]2(C)C[C@H]1OC(C)=O [Inhibitor 30] | 83.0 ± 23.6 % of control
CC(C)C(C(=O)OC(C#N)c1cccc(Oc2ccccc2)c1)c1ccc(Cl)cc1 (stereo not shown) [Inhibitor 82] | 80.4 ± 13.0 % of control
C=CC(=O)c1ccc2ccccc2c1 [Inhibitor 64] | 70.7 ± 4.2 % of control
Cl.c1ccc(C2CN3CCSC3=N2)cc1 (stereo not shown) [Inhibitor 79] | 75.0 ± 2.3 % of control
COc1cccc(-c2cc(=O)c3ccccc3o2)c1N [Inhibitor 1] | 77.9 ± 30.6 % of control
CC1CNCCN1S(=O)(=O)c1cccc2cnccc12 (stereo not shown) [Inhibitor 4] | 80.3 ± 8.2 % of control
Nc1ncc2[nH]cnc2n1 [Inhibitor 44, 2-aminopurine] | 95.3 ± 5.9 % of control
N#C/C(=C\c1ccc(O)c(O)c1)C(=O)NCc1ccccc1 [Inhibitor 25] | 78.5 ± 5.8 % of control

Same assay, conditions: screen at 16 μM

Compound | effect on LRRK2 autophosphorylation
CN[C@@H]1C[C@H]2O[C@@](C)([C@@H]1OC)n1c3ccccc3c3c4c(c5c6ccccc6n2c5c31)C(=O)NC4 [Inhibitor 6, Staurosporine, reference compound] | substantially inhibited

Each compound was assayed against T1, LRRK2 WT (assay: In vitro kinase assay: LRRK2-mediated MBP phosphorylation). Conditions: compound 16 μM; 30° C., 15 min; normalized to absence of compound; mean ± S.E.M. of three experiments.
Assay type: biochemical

Compound | MBP phosphorylation Average ± SEM
O=S(=O)(NCCNC/C=C/c1ccc(Br)cc1)c1cccc2cnccc12 [Inhibitor 35] | 85.3 ± 54.2 % of control
CN[C@@H]1C[C@H]2O[C@@](C)([C@@H]1OC)n1c3ccccc3c3c4c(c5c6ccccc6n2c5c31)C(=O)NC4 [Inhibitor 6, Staurosporine, reference compound] | 9.2 ± 6.4 % of control
N=C(N)NCCNS(=O)(=O)c1cccc2cnccc12 [Inhibitor 37] | 106.7 ± 25.4 % of control
COc1cc(/C=C(\C#N)C(N)=O)cc(CSc2nc3ccccc3s2)c1O [Inhibitor 8] | 81.5 ± 17.6 % of control
CC(C)CC(NC(=O)[C@H](CCC(=O)O)NC(=O)CNC(=O)c1ccc(/C=C/C(=O)O)cc1)C(N)=O (stereo partly shown) [Inhibitor 84] | 124.1 ± 37.2 % of control
C#COC1(C)[C@@H]2CC[C@@H](O2)C1(C)C(=O)O (stereo partly shown) [Inhibitor 71] | 99.8 ± 3.4 % of control
COC(=O)/C=C/c1cc(O)ccc1O [Inhibitor 61] | 93.9 ± 11.5 % of control
Cc1cc2ncc(-c3ccccc3)nc2cc1C [Inhibitor 19] | 104.3 ± 14.6 % of control
CC(C)n1cnc2c(NCc3ccccc3)nc(NCCO)nc21 [Inhibitor 45] | 111.7 ± 69.7 % of control
N#C/C(=C\c1ccc(O)c(O)c1)C(N)=S [Inhibitor 14] | 110.5 ± 29.3 % of control
O=P(O)(O)Cc1ccccc1 [Inhibitor 74] | 121.8 ± 23.6 % of control
O=C1Nc2ccccc2/C1=C1\Nc2ccccc2C1=O [Inhibitor 69] | 110.3 ± 28.4 % of control
CC[C@@H](CO)Nc1nc(NCc2ccccc2)c2ncn(C(C)C)c2n1 [Inhibitor 48] | 100.1 ± 41.5 % of control
COc1cc2ncc(-c3ccccc3)nc2cc1OC [Inhibitor 55] | 131.7 ± 34.2 % of control
Oc1cc(O)cc(/C=C/c2ccc(O)c(O)c2)c1 [Inhibitor 23] | 93.0 ± 17.8 % of control
N#CC(C#N)=Cc1ccc(O)c(O)c1 [Inhibitor 11] | 55.5 ± 56.5 % of control
O=P(O)(O)CCc1ccc2ccccc2c1O [Inhibitor 21] | 138.2 ± 36.9 % of control
COC[C@H]1OC(=O)c2coc3c2[C@@]1(C)C1=C(C3=O)[C@@H]2CCC(=O)[C@@]2(C)C[C@H]1OC(C)=O [Inhibitor 30] | 66.8 ± 29.1 % of control
CC(C)C(C(=O)OC(C#N)c1cccc(Oc2ccccc2)c1)c1ccc(Cl)cc1 (stereo not shown) [Inhibitor 82] | 61.5 ± 54.0 % of control
C=CC(=O)c1ccc2ccccc2c1 [Inhibitor 64] | 123.7 ± 26.3 % of control
Cl.c1ccc(C2CN3CCSC3=N2)cc1 (stereo not shown) [Inhibitor 79] | 138.8 ± 33.9 % of control
COc1cccc(-c2cc(=O)c3ccccc3o2)c1N [Inhibitor 1] | 77.5 ± 55.0 % of control
CC1CNCCN1S(=O)(=O)c1cccc2cnccc12 (stereo not shown) [Inhibitor 4] | 88.0 ± 26.4 % of control
Nc1ncc2[nH]cnc2n1 [Inhibitor 44, 2-aminopurine] | 77.2 ± 86.4 % of control
N#C/C(=C\c1ccc(O)c(O)c1)C(=O)NCc1ccccc1 [Inhibitor 25] | 82.9 ± 17.7 % of control

Same assay, conditions: screen at 16 μM

Compound | effect on LRRK2-mediated phosphorylation of MBP
CN[C@@H]1C[C@H]2O[C@@](C)([C@@H]1OC)n1c3ccccc3c3c4c(c5c6ccccc6n2c5c31)C(=O)NC4 [Inhibitor 6, Staurosporine, reference compound] | substantially inhibited
